Values quoted from earlier work in patent publication US4197292A, “Novel amylase inhibitors” (Taisho Pharmaceutical Co., priority 1978, dated 1980).

Test system: β-glucosidase
Details: prior art inhibitor

inhibitory activity to β-glucosidase (in words): has inhibitory activity
SMILES: OC[C@H]1NC(O)[C@H](O)[C@@H](O)[C@@H]1O (stereo partly shown) [Nojirimycin]
